Measured values taken from PMC6273152, “Design, Synthesis, and Biological Evaluation of Novel PARP-1 Inhibitors Based on a 1H-Thieno[3,4-d] Imidazole-4-Carboxamide Scaffold” (Molecules, 2016).
Read-outs that look alike come from different tables or passages of the source.

What was measured:
PARP-1 enzyme = target: T1, PARP-1 enzyme (Homo sapiens, UniProt P09874); experiment: PARP-1 enzymatic inhibition assay (Trevigen 96-well kit, fluorescence); assay type: biochemical; conditions: Table 2 series (16a–n); logit method, six concentrations; read-out: IC50 (PARP-1 enzyme inhibitory activity)
T1 construct: purchased Trevigen 4690-096-K
T1 sequence (P09874 whole entry): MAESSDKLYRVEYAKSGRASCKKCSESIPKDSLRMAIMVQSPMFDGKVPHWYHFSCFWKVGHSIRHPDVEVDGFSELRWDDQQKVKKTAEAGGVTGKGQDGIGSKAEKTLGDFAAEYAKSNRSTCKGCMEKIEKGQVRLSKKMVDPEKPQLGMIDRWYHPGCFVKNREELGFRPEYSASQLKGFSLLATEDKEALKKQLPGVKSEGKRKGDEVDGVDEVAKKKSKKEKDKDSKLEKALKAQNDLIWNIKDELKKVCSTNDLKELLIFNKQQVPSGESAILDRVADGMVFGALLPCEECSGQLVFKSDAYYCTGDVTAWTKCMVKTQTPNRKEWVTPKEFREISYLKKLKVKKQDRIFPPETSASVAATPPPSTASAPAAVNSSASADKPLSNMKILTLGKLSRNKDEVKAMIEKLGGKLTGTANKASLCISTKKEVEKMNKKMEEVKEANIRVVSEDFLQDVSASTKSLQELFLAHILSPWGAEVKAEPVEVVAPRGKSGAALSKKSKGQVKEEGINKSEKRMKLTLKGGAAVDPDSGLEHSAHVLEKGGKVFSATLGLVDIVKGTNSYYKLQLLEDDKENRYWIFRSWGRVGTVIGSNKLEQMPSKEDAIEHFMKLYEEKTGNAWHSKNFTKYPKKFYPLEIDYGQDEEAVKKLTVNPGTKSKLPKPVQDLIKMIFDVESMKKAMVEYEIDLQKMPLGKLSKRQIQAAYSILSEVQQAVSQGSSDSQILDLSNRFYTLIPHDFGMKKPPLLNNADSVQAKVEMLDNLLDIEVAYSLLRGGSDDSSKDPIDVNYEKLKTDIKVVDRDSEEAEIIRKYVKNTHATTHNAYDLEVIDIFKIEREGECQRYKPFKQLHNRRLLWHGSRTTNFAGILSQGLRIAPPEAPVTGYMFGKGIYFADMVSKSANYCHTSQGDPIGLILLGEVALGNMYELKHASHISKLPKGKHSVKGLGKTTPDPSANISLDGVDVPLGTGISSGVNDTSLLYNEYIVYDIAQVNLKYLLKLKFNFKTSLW
Procedure: All target compounds were evaluated in vitro for their PARP-1 enzyme inhibitory activity.
The procedure was according to the instructions provided by the manufacturer. […] 25 μL of 1 × Buffer was added to each well and 25 μL of appropriate 2 × NAD^+ standards were added to 1B to 1G and 2B to 2G well of 96-well plate for standard curve. 25 μL of 2 μM NAD was added to 1H and 2H for PARP control. 25 μL of 2 μM NAD was added to wells for test compounds, then serially diluted compounds were added, and 1 μL of DMSO was added to the standard well. 25 μL of PARP Mix minus enzyme was added to 1A to 1G and 25 μL of PARP Mix plus enzyme was added to PARP control and compounds well. […] Then 50 μL stop solution was added to each well, and mixed with pipette. […] Then draw the standard curve and calculate the inhibition rate of each test compound.

in vitro = conditions: human, normal human lung fibroblast (HLF) cells
Procedure: (§1) The cytotoxic potencies of test compounds were determined on normal human lung fibroblast (HLF) cells. Cells were seeded into 96-well plate at 3000 cells/well. The stock solutions of test compounds were dissolved in DMSO and serially diluted to the required concentrations for 7 doses, and the final testing concentrations for these compounds were 0.3, 1, 3, 10, 30, 100, 300 µM. […] The fraction of surviving cells after compound treatment was determined using the MTT assay.

[1] = system: HCC1937 (BRCA1-deficient) cells; experiment: CellTiter Glo assay for cell growth inhibition, HCC1937; conditions: HCC1937, 96 h, read-out: IC50 (BRCA-1, HCC1937)
Procedure: (§2) The growth inhibition potential of test compounds was determined on BRCA1-deficient cell lines HCC1937 and BRCA2-deficient cell lines CAPAN-1. The stock solutions of test compounds were dissolved in DMSO and serially diluted to the required concentrations for 9 doses. […] 60 μL medium was removed from each well and plates were kept at room temperature for 30 min. 60 μL reagent (Celltiter Glo assay kit, Promega, Sunnyvale, CA, USA) per well was added and plates were shaked for 2 min. Cells were incubated avoiding light at room temperature for 30 min and the luminescence value was recorded by multiplate reader. GraphPad Prism 5 was used to plot effect-dose curves and calculate the IC50 values of compounds.

[2] = system: CAPAN-1 (BRCA2-deficient) cells; experiment: CellTiter Glo assay for cell growth inhibition, CAPAN-1; conditions: CAPAN-1, 96 h, read-out: IC50 (BRCA-2, CAPAN-1)
Procedure: as §2

[3] = system: normal human lung fibroblast (HLF) cells; experiment: Cytotoxicity assay (MTT) on normal human lung fibroblast cells; conditions: 72 h
Procedure: as §1

[4] = CellTiter Glo, nine concentrations

SMILES | IC50 (PARP-1 enzyme) | melting point | IC50 at 72 h (in vitro) | IC50 ([1]; Homo sapiens) | IC50 ([2]; Homo sapiens) | Inhibition Rate ([3]; 0.3 µM) | Inhibition Rate ([3]; 1 µM) | Inhibition Rate ([3]; 3 µM) | Inhibition Rate ([3]; 10 µM) | Inhibition Rate ([3]; 30 µM) | Inhibition Rate ([3]; 100 µM) | Inhibition Rate ([3]; 300 µM) | IC50 [1, 4] | IC50 [2, 4]
NC(=O)c1scc2[nH]c(-c3ccc(Cl)cc3)nc12 [Compound 16c, 2-(4-Chlorophenyl)-1H-thieno[3,4-d]imidazole-4-carboxamide] | 0.354 µM | 245 to 246 °C | – | – | – | – | – | – | – | – | – | – | – | –
NC(=O)c1scc2[nH]c(-c3ccccc3Cl)nc12 [Compound 16d, 2-(2-Chlorophenyl)-1H-thieno[3,4-d]imidazole-4-carboxamide] | 1.49 µM | 202 to 204 °C | – | – | – | – | – | – | – | – | – | – | – | –
NC(=O)c1scc2[nH]c(-c3c(Cl)cccc3Cl)nc12 [Compound 16e, 2-(2,6-Dichlorophenyl)-1H-thieno[3,4-d]imidazole-4-carboxamide] | – | 210 to 212 °C | – | – | – | – | – | – | – | – | – | – | – | –
NC(=O)c1scc2[nH]c(-c3ccc(C(F)(F)F)cc3)nc12 [Compound 16f, 2-(4-(Trifluoromethyl)phenyl)-1H-thieno[3,4-d]imidazole-4-carboxamide] | 0.548 µM | 283 to 285 °C | – | – | – | – | – | – | – | – | – | – | – | –
NC(=O)c1scc2[nH]c(-c3cccc(C(F)(F)F)c3)nc12 [Compound 16g, 2-(3-(Trifluoromethyl)phenyl)-1H-thieno[3,4-d]imidazole-4-carboxamide] | 0.151 µM | – | 77.6 ± 1.5 µM | 31.3 ± 0.35 µM | 38.6 ± 6.75 µM | −1.65% | −1.02% | −0.63% | 0.76% | 4.13% | 69.88% | 99.40% | – | –
NC(=O)c1scc2[nH]c(-c3ccccc3C(F)(F)F)nc12 [Compound 16h, 2-(2-(Trifluoromethyl)phenyl)-1H-thieno[3,4-d]imidazole-4-carboxamide] | – | 241 to 243 °C | – | – | – | – | – | – | – | – | – | – | – | –
NC(=O)c1scc2[nH]c(-c3ccc([N+](=O)[O-])cc3)nc12 [Compound 16i, 2-(4-Nitrophenyl)-1H-thieno[3,4-d]imidazole-4-carboxamide] | 0.136 µM | – | 94.1 ± 2.2 µM | 32.9 ± 4.21 µM | 26.8 ± 1.55 µM | −0.05% | 1.33% | 0.99% | 3.37% | 2.56% | 55.26% | 99.63% | – | –
COc1ccc(-c2nc3c(C(N)=O)scc3[nH]2)cc1 [Compound 16j, 2-(4-Methoxyphenyl)-1H-thieno[3,4-d]imidazole-4-carboxamide] | 0.102 µM | – | > 300 µM | 55.14 ± 0.24 µM | 46.6 ± 0.62 µM | 0.68% | 2.85% | 2.68% | 6.95% | 9.43% | 12.63% | 32.37% | – | –
COc1cccc(-c2nc3c(C(N)=O)scc3[nH]2)c1 [Compound 16k, 2-(3-Methoxyphenyl)-1H-thieno[3,4-d]imidazole-4-carboxamide] | 1.49 µM | 230 to 242 °C | – | – | – | – | – | – | – | – | – | – | – | –
Cc1ccc(-c2nc3c(C(N)=O)scc3[nH]2)cc1 [Compound 16l, 2-(p-Tolyl)-1H-thieno[3,4-d]imidazole-4-carboxamide] | 0.043 µM | – | > 300 µM | 49.2 ± 5.43 µM | 38.8 ± 1.6 µM | 0.42% | 3.80% | 7.12% | 10.16% | 13.65% | 23.20% | 27.94% | – | –
Cc1cccc(-c2nc3c(C(N)=O)scc3[nH]2)c1 [Compound 16m, 2-(m-Tolyl)-1H-thieno[3,4-d]imidazole-4-carboxamide] | 5.79 µM | 254 to 255 °C | – | – | – | – | – | – | – | – | – | – | – | –
Cc1ccccc1-c1nc2c(C(N)=O)scc2[nH]1 [Compound 16n, 2-(o-Tolyl)-1H-thieno[3,4-d]imidazole-4-carboxamide] | 0.328 µM | 222 to 223 °C | – | – | – | – | – | – | – | – | – | – | – | –
O=C(c1cc(Cc2n[nH]c(=O)c3ccccc23)ccc1F)N1CCN(C(=O)C2CC2)CC1 [Olaparib, olaparib, reference compound] | – | – | 134 ± 3.14 µM | 133 ± 14.4 µM | 13.4 ± 1.16 µM | 1.88% | 1.83% | 1.10% | 1.37% | 1.04% | 29.60% | 91.45% | – | –
C[C@]1(c2nc3c(C(N)=O)cccc3[nH]2)CCCN1 [Veliparib, veliparib, reference compound] | – | – | ~200 µM | – | – | 1.00% | −0.28% | −1.20% | −1.35% | −0.06% | −0.45% | 93.64% | 127 ± 18.1 µM | 57.7 ± 12.4 µM
